Three compounds from patent US20110071148A1, “COMPOUNDS AS THE ESTROGEN RELATED RECEPTORS MODULATORS AND THE USES THEREOF” (Guangzhou Institute of Biomedicine and Health, Chinese …, priority 2008, published 2011) can be followed below.

The target in data set [1] is T1, GAL-hERRα (human ERRalpha ligand binding domain) (Homo sapiens, UniProt P11474).
T1 construct: expressed in transfected cells; host or cells: HeLa cells, transient lipofection
Put plainly: GAL4-hERRα ligand binding domain luciferase reporter assay (UASgx4-TK-Luc with CMV-PGC-1α) in HeLa cells. As to conditions: for expression of reporter genes modulated by ERRα: HeLa cell. The class given is cell-based. As for the experimental part:
To test the effect of the compounds on ERRα and other nuclear hormone receptors, HeLa cells were transiently transfected with expression vectors for the receptors along with appropriate reporter constructs according to methods known in the art. Suitable reporter gene constructs are well known to skilled workers in the fields of biochemistry and molecular biology. Other vectors known in the art can be used in the methods of the present invention.
HeLa cells for the activation assays were grown in Dulbecco's modified Eagle's medium supplemented with 10% resin charcoal-stripped fetal bovine serum at 37° C. in 5% CO2. One day prior to transfection, cells were plated to 50-80% confluence to using phenol red free DMEM-FBS. The cells were transiently transfected by lipofection but other methods of transfection of DNA into cells can be utilized without deviating from the spirit of the invention. Luciferase reporter construct UASgx4-TK-Luc and cytomegalovirus-driven expression vector p-GAL, GAL-hERRα, GAL-L-hERRβ or Gal-mERRγ were added with CMV-PGC-1α. The cells were treated for approximately 24 hours with phenol red free DMEM-FBS containing 0.01% DMSO (control) or 0.01% DMSO with increasing concentrations of DK compounds.

Data set [2] concerns PGC1α-promoter reporter gene driven by ERRα. Put plainly: PGC1α-promoter luciferase reporter assay driven by ERRα in HeLa cells. The class given is cell-based, human. Particulars: about 24 hours, increasing concentrations, FIG. 4. An excerpt:
HeLa were transiently transfected with the pGL3-promoter (Promega) derivative pGL3-PGC1α-promoter and expression vector for ERRα. The Renilla-Luciferase pRL-CMV Vector (Promega) was included as a control for transfection efficiency. The full length human ERRα was cloned into the expression vector pCMV. The pGL3-PGC1α-promoter was generated by cloning an insert derived from a PCR reaction using human genomic DNA as template and primers based on the 2.6 kbp upstream sequence of the PGC1α transcriptional start site.
HeLa cells for the activation assays were grown in Dulbecco's modified Eagle's medium supplemented with 10% fetal bovine serum at 37° C. in 5% CO2. One day prior to transfection, cells were plated to 50-80% confluence using DMEM-FBS. The cells were transiently transfected by lipofection but other methods of transfection of DNA into cells can be utilized without deviating from the spirit of the invention. Luciferase reporter construct pGL3-PGC1α-promoter and cytomegalovirus-driven expression vector pCMV or pCMV -hERRα were added. The cells were treated for approximately 24 hours with DMEM-FBS containing 0.01% DMSO (control) or 0.01% DMSO with increasing concentrations of DK compounds.
(In general: A reporter such as luciferase makes a cellular process visible.)

A short description of data set [3]: Oral glucose tolerance test in high-fat-diet mice. The class given is in vivo, C57BL/J6 mice. As to conditions: compared to rosiglitazone 10 mg/kg/day. As to the method:
Seven weeks old male C57BL/J6 mice were either fed chow diet or a high-fat-diet with 60% calories from lard for 10 weeks. Compounds were administered to animals by gavage for two weeks at different doses. Six groups of animals (n=5) were administered with either vehicle, 10 mg/kg/day rosiglitazone, 0.5 mg/kg/day DK1, 5 mg/kg/day DK1, 0.5 mg/kg/day DK3, or 5 mg/kg/day DK3. Animals were then orally fed glucose. Blood samples were withdrawn at time 0, 15, 30, 60 and 120 min. Blood glucose level was measured by monitor (Accu-chek Advantage, Roche). The changes in blood glucose level were plotted against time and the areas under the curve were calculated for the different groups.

The nature of data set [4]: Liver weight and fatty liver in high-fat-diet mice. Particulars: for liver weight: compared to rosiglitazone 10 mg/kg/d. The class given is in vivo, C57BL/J6 mice. As to the method: Seven weeks old male C57BL/J6 mice were either fed chow diet or a high-fat-diet with 60% calories from lard for 10 weeks. Compounds were administered to animals by gavage for two weeks at different doses. Six groups of animals (n=5) were administered with either vehicle, 10 mg/kg/day rosiglitazone, 0.5 mg/kg/day DK1, 5 mg/kg/day DK1, 0.5 mg/kg/day DK3, or 5 mg/kg/day DK3. Total body weight and livers wet weight from animals were measured. Liver samples to from animals were prepared by histological methods.

Setting [5] is: 0.5 mg/kg/day by gavage for two weeks.
The mark [6] stands for this setting: 5 mg/kg/day by gavage for two weeks.

T1 sequence (P11474 193-421 limits assumed): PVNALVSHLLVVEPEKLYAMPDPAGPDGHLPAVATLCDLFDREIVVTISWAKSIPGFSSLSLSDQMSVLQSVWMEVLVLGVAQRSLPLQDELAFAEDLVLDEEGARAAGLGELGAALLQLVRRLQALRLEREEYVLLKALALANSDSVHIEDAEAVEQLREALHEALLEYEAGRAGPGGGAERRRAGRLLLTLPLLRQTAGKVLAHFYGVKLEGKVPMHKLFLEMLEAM
T1 sequence (P04386 1-147 partner limits assumed): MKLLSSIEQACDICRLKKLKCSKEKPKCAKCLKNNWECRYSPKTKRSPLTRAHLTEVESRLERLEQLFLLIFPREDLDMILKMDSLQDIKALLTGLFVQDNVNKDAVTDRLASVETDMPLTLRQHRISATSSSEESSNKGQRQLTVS
T1 sequence (O70343 whole entry partner, the tested form may be a part): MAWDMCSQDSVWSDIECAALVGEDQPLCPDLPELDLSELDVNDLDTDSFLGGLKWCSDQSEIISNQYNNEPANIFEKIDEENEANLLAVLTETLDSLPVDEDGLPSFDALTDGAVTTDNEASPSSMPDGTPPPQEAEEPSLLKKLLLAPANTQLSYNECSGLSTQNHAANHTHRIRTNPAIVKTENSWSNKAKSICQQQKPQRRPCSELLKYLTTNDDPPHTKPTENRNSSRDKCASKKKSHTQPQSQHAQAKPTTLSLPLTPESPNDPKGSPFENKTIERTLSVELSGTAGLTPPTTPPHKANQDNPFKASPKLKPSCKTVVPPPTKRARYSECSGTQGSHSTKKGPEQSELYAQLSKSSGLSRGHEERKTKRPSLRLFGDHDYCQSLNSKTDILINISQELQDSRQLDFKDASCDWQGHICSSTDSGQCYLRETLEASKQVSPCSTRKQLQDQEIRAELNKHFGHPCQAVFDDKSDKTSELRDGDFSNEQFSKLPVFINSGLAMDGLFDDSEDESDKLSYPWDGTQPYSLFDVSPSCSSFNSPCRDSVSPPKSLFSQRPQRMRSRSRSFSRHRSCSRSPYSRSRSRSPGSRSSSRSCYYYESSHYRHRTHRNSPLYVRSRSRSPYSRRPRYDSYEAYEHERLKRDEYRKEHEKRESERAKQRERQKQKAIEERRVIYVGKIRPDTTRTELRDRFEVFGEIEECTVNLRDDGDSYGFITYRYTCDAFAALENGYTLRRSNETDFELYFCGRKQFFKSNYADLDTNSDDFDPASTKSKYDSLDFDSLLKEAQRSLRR

For the compound `COc1ccc2c(=O)n(C)c(-c3ccc(Br)cc3)nc2c1` [Compound 4, 2-(4-bromophenyl)-7-methoxy-3-methylquinazolin-4(3H)-one], in data set [1], the “expression of reporter genes modulated by ERRα” value (“expression” below) is given as “effectively enhance”.
As to `COc1ccc2c(=O)n(C)c(-c3ccccc3)nc2c1` [Compound 1, 7-methoxy-3-methyl-2-phenylquinazolin-4(3H)-one], in data set [1], the “expression” value was “effectively enhance”. The “reversal of the suppressive effect of ERRα specific inverse agonist XCT-790” value in data set [1] (HeLa cells, FIG. 2) is “dose-dependently reverses”. The “activity of GAL-hERRα on reporter construct UASgx4-TK-Luc” value in data set [1] (HeLa cells, in the presence of CMV-PGC-1α, increasing concentrations) is listed as “dose-dependently enhances”. Besides, the “PGC1α-promoter reporter gene driven by ERRα” value in data set [2] is “dose-dependent enhancement”. Moreover, the “area under the curve of the oral glucose tolerance test” value in data set [3] (setting [5]) and in data set [3] (setting [6]) was “reduced” in each case. Moreover, the liver weight entry in data set [4] (setting [5]) and in data set [4] (setting [6]) was “did not increase” throughout. Moreover, the “extent of fatty liver induced by high-fat-diet” value in data set [4] (gavage for two weeks, histology, FIGS. 7 and 8) was “reduce the extent of fatty liver”.
Consider `COc1ccc2c(=O)n(C)c(-c3ccc(F)cc3)nc2c1` [Compound 3, 2-(4-fluorophenyl)-7-methoxy-3-methylquinazolin-4(3H)-one], for which the “expression” value in data set [1] was “effectively enhance”.
